# Like-named read-outs stand apart in the source and are kept apart here.
# Tests used:
# [1] = target: T1, bacterial TrxR from E. coli (Escherichia coli, UniProt P0A9P4); experiment: Inhibition of bacterial TrxR (E. coli), DTNB/5-TNB assay; type: biochemical; conditions: purified enzyme, 75 min incubation at 25 °C; means and standard deviations
# T1 construct: purchased Sigma-Aldrich
# Protocol: The TrxR (E.coli) inhibition assay was performed according to a previously published procedure. It is partly based on the procedure developed by Lu et al.[35] and detects the formation of 5-TNB (5-thionitrobenzoic acid). Solutions of E. coli TrxR (35.4 U/mL) and of its substrate thioredoxin (Trx) E. coli (156 µg/mL) (both purchased from Sigma-Aldrich and diluted with distilled water) and fresh stock solutions of the test compounds (in DMF) were prepared (1c was administered as suspension). TE buffer (Tris–HCl 50 mM, EDTA 1 mM, pH 7.5) containing graded concentrations of the respective compounds (20 µL) or buffer without compounds (20 µL, as control) were mixed with TrxR solution (10 µL), Trx solution (10 µL), and a solution of NADPH (200 µM) in TE buffer (100 µL) in a well on a 96-well plate. As blank solution, 200 µM NADPH in TE buffer (100 µL) mixed with a DMF/buffer mixture (40 µL) was used (final concentrations of DMF: 0.5% v/v). The solutions on the 96-well plate were incubated for 75 min at 25 °C with moderate shaking. A volume of 100 µL of a reaction mixture (TE buffer containing 200 µM NADPH and 5 mM DTNB) was added to each well to initiate the reaction. After thorough mixing, the formation of 5-TNB was monitored by a microplate reader at 405 nm in 35 s intervals (10 measurements). The values were corrected by subtraction of the values for the blank solution. The increase in concentration of 5-TNB followed a linear trend (r^2 ≥ 0.990) and the enzymatic activities were calculated as the gradients (increase in absorbance per second) thereof. Absence of interference with the assay components was confirmed by a negative control experiment for each test compound. The highest test compound concentration was used and the enzyme solution was replaced by TE buffer for this purpose. The IC50 values were calculated as the concentration of the compound decreasing the enzymatic activity of the positive control by 50% and are presented as the means and standard deviations of independent repeated experiments.
# A-549 lung cancer cells = experiment: Antiproliferative assay (crystal violet); type: cell-based, human; conditions: 72 h exposure, ± standard deviation, n = 2–4, read-out: IC50, antiproliferative effects, A-549
# Protocol: (§1) The antiproliferative effects were determined according to a previously published procedure. A volume of 100 µL of cell suspension of A549 cells, MDA-MB-231, HT-29 or Vero E6 cells was transferred into the wells of a 96-well plates and incubated at 37 °C under 5% CO2 for 72 h. […] The results were calculated as the mean values of three independent experiments, unless stated otherwise.
# [2] = system: HT-29 colon carcinoma cells; experiment: Antiproliferative assay (crystal violet); type: cell-based, human; conditions: 72 h exposure, ± standard deviation, n = 2–4, read-out: IC50, antiproliferative effects, HT-29
# Protocol: as §1
# [3] = system: MDA-MB-231 breast cancer cells; experiment: Antiproliferative assay (crystal violet); type: cell-based, human; conditions: 96 h exposure, ± standard deviation, n = 2–4, read-out: IC50, antiproliferative effects, MDA-MB-231
# Protocol: as §1
# [4] = system: Vero E6 non-tumorigenic epithelial kidney cells; experiment: Antiproliferative assay (crystal violet); type: cell-based, African green monkey; conditions: 72 h exposure, ± standard deviation, n = 2–4, read-out: IC50, antiproliferative effects, Vero E6
# Protocol: as §1
# [5] = system: Acinetobacter baumannii (DSM 30007, ATCC 19606); experiment: MIC broth dilution, aerobic bacteria; type: cell-based; conditions: 20 h at 37 °C, ± standard error, n ≥ 3
# Protocol: (§2) The following strains were used and maintained at 37 °C in MHB (21 g/L Müller Hinton, pH 7.4) or TSY (30 g/L trypticase soy broth, 3 g/L yeast extract, pH 7.0–7.2) medium. Acinetobacter baumannii (DSM 30007, ATCC 19606) in MHB, Escherichia coli (DSM1116, ATCC 9637) in TSY, Klebsiella pneumoniae (DSM 11678, ATCC33495) in MHB, Pseudomonas aeruginosa PA7 (DSM 24068) in MHB, Enterococcus faecium (DSM 20477, ATCC 19434) in TSY, Staphylococcus aureus MRSA (DSM 11822, ICB 25701) in TSY). Minimum inhibitory concentration (MIC) values were determined following a standardized protocol in broth dilution assays. […] Starting inocula of 2–8 × 10^5 colony-forming units per ml in MHB or TSY media at 37 °C were used, and serial dilutions were carried out in 384-well microtiter plates in duplicate. […] The MIC values for the tested compounds were determined in three independent experiments by a curve-fitting procedure using the GraphPad Prism software (Graphpad Software, Inc.).
# [6] = system: Enterococcus faecium (DSM 20477, ATCC 19434); experiment: MIC broth dilution, aerobic bacteria; type: cell-based; conditions: 20 h at 37 °C, ± standard error; for MIC, E. faecium: n ≥ 3; for MIC: n ≥ 3, read-out: MIC, E. faecium
# Protocol: as §2
# [7] = system: Escherichia coli (DSM1116, ATCC 9637); experiment: MIC broth dilution, aerobic bacteria; type: cell-based; conditions: 20 h at 37 °C, ± standard error, n ≥ 3
# Protocol: as §2
# [8] = system: Klebsiella pneumoniae (DSM 11678, ATCC33495); experiment: MIC broth dilution, aerobic bacteria; type: cell-based; conditions: 20 h at 37 °C, ± standard error, n ≥ 3, read-out: MIC, K. pneumoniae
# Protocol: as §2
# [9] = system: Pseudomonas aeruginosa PA7 (DSM 24068); experiment: MIC broth dilution, aerobic bacteria; type: cell-based; conditions: ± standard error, n ≥ 3, read-out: MIC, P.aeruginosa
# Protocol: as §2
# [10] = system: Staphylococcus aureus MRSA (DSM 11822, ICB 25701); experiment: MIC broth dilution, aerobic bacteria; type: cell-based; conditions: 20 h at 37 °C, ± standard error, n ≥ 3
# Protocol: as §2
# [11] = system: aerobic Gram-positive and Gram-negative pathogenic bacteria strains; experiment: MIC, summary over the panel of aerobic bacteria; type: cell-based; conditions: for MIC values against all bacteria strains: all strains of the panel
# Protocol: as §2
# [12] = system: A-549, HT-29, MDA-MB-231 and Vero E6 cells; experiment: Antiproliferative assay, summary over all cell lines; type: cell-based; conditions: for IC50: all four cell lines, for 2c except MDA-MB-231, read-out: IC50 values, antiproliferative effects, all cell lines
# Protocol: as §1
# [13] = system: C. difficile strain 1296^ T (DSM 1296), metronidazole-sensitive; experiment: Antibacterial effects against C. difficile (anaerobic growth curves, OD600); type: cell-based, Clostridioides difficile
# Protocol: (§3) (provided by Ulrich Nübel, DSMZ Braunschweig) were maintained in prereduced BHIS medium (37 g/L BHI, oxoid, 5% yeast extract, 1% L-cysteine) in a Coy-Laboratories anaerobic chamber (85% N2, 10% CO2, 5% H2) at 37 °C. Freshly prepared cultures were incubated until the exponential growth phase (OD600 = 0.2–0.4) and were adjusted to 1 × 10^6 cfu/mL before inoculation. The test compounds were dissolved in DMSO and by two-fold dilution steps concentrations in the range from 200 µM to 0.39 µM in BIHS medium were obtained. The solutions (100µL) were added to 100 µL of a diluted C. difficile culture (total volume: 200 µL in BIHS, 5 × 10^5 C. difficile, 100–0.195 µM test compound per well). The OD600-values over a period of 48 h were measured with a LogPhase 600 4-plate reader (BioTek) and compared with blank BHIS.
# [14] = system: C. difficile strain IB136 (NCTC 14385), metronidazole-resistant; experiment: as above; type: cell-based, Clostridioides difficile
# Protocol: as §3
# [15] = system: C. difficile strain VPI10463 (ATCC 43255), metronidazole-sensitive; experiment: as above; type: cell-based, Clostridioides difficile
# Protocol: as §3
# T1 sequence (P0A9P4 whole entry): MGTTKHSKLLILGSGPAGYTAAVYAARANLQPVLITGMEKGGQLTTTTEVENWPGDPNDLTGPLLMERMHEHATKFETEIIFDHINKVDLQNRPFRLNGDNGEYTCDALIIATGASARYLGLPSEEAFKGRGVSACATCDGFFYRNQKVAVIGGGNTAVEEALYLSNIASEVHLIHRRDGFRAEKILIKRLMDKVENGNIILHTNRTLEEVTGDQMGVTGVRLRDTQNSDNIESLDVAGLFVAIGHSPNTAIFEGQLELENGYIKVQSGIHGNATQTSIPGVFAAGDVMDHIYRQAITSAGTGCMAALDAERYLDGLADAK
SMILES,IC50 [1],IC50 (A-549 lung cancer cells),IC50 [2],IC50 [3],IC50 [4],"MIC, E. faecium [6]",MIC [7],MIC [8],MIC ([9]; 20 h at 37 °C),activity against Gram-negative strains (in words) ([11]; aerobic conditions),MIC [5],"MIC, E. coli [7]","MIC, MRSA [10]",IC50 [12],MIC values against all bacteria strains ([11]; aerobic conditions),further results
"CC(=O)OC[C@H]1O[C@@H]([S-])[C@H](OC(C)=O)[C@@H](OC(C)=O)[C@@H]1OC(C)=O.CCP(CC)CC.[Au+] [Auranofin, reference compound]",0.21 ± 0.03 µM,4.2 ± 0.6 µM,10.5 ± 4.8 µM,1.2 ± 0.3 µM,2.6 ± 0.1 µM,0.6 ± 0.2 µM,> 30 µM,> 30 µM,> 30 µM,lower active or inactive,–,–,–,–,–,"MIC, A. baumannii [5]: 7.8 ± 7.1 µM; MIC [10]: < 0.2 µM; activity against Gram-positive strains (in words) ([11]; aerobic conditions): strong activity"
"CCn1[c]([Au-][Cl])[n+](CC)c2cc(C(=O)O)ccc21 [Compound 1b, Chlorido-(1,3-diethyl-5-carboxybenzimidazol-2-ylidene)gold(I)]",0.297 ± 0.031 µM,> 75 µM,66.3 ± 8.8 µM,74.6 ± 1.3 µM,> 100 µM,142.0 ± 0.0 µM,–,> 142.0 µM,> 142.0 µM,–,> 142.0 µM,142.0 ± 0.0 µM,142.0 ± 0.0 µM,> 60 µM,> 100 µM,–
"CCn1[c](=[Au][Cl])n(CC)c2cc(C(=O)OCCn3c([N+](=O)[O-])cnc3C)ccc21 [Compound 1c, Chlorido-(1,3-diethyl-5-((2-(2-methyl-5-nitroimidazol-1-yl)ethoxy)carbonyl)benzimidazol-2-ylidene)gold(I)]",0.145 ± 0.038 µM,> 100 µM,> 100 µM,> 100 µM,> 100 µM,44.2 ± 15.3 µM,> 106.0 µM,> 106.0 µM,> 106.0 µM,inactive,> 106.0 µM,–,106.0 ± 0.0 µM,> 60 µM,–,"MIC values against Gram-positive strains ([11]; MRSA and E. faecium, except for 1c in MRSA): 37 to 44 µM; solubility in organic solvents (Solubility observations): limited solubility in organic solvents"
"CCOC(=O)Cn1[c]([Au-][Cl])[n+](C)c2ccccc21 [Compound 2a, Chlorido-(1-(2-ethoxy-2-oxoethyl)-3-methylbenzimidazol-2-ylidene)gold(I)]",–,26.1 ± 3.7 µM,19.9 ± 5.1 µM,9.6 ± 2.7 µM,25.8 ± 4.6 µM,–,–,–,–,–,–,–,–,9 to 26 µM,–,cytotoxicity of 2a relative to 2c (times stronger) ([12]; in all cases (all cell lines)): 3–4
Cn1[c](=[Au][Cl])n(CC(=O)O)c2ccccc21 [Compound 2b],0.364 ± 0.103 µM,> 100 µM,> 80 µM,65.7 ± 8.2 µM,> 100 µM,–,–,> 151.4 µM,> 151.4 µM,–,> 151.4 µM,151.4 ± 0.0 µM,151.4 ± 0.0 µM,> 60 µM,> 100 µM,"MIC [6]: > 151.4 µM; antibacterial effect, dosages from 0.2 to 100 µM ([13]; strain 1296T (Figure S1)): inactive; antibacterial effect, dosages from 0.2 to 100 µM ([14]; strain IB136 (Figure S3)): inactive; antibacterial effect, dosages from 0.2 to 100 µM ([15]; strain VPI10463 (Figure S2)): inactive"
"Cc1ncc([N+](=O)[O-])n1CCO [Metronidazole, reference compound]",–,–,–,–,–,–,–,–,–,–,–,–,–,–,not active,"IC50 (A-549 lung cancer cells; Homo sapiens, A549): > 100 µM; IC50 ([2]; Homo sapiens, HT-29): > 100 µM; IC50 ([3]; Homo sapiens, MDA-MB-231): > 100 µM; IC50 ([4]; Chlorocebus sabaeus, Vero C1008): > 100 µM; MIC ([5]; Acinetobacter baumannii): > 350 µM; MIC ([6]; Enterococcus faecium): > 350 µM; MIC ([7]; Escherichia coli): > 350 µM; MIC ([8]; Klebsiella pneumoniae): > 350 µM; MIC ([9]; Pseudomonas aeruginosa, DSM24068, 20 h at 37 °C): > 350 µM; MIC ([10]; Staphylococcus aureus): > 350 µM; antibacterial effect at 6.25 µM ([13]; strain 1296T, 6.25 µM, recovery of growth after extended exposure): effective inhibitors; concentration leading to a complete block of bacterial growth without recovery ([14]; metronidazole-resistant strain IB136, up to 100 µM, 48 h): no dosage of the drug could terminate the proliferation; antibacterial effect at 6.25 µM ([14]; resistant strain IB136, 6.25 µM): completely inactive; antibacterial effect at 6.25 µM ([15]; strain VPI10463, 6.25 µM, recovery of growth after extended exposure): effective inhibitors; IC50 ([12]; Homo sapiens): > 100 µM"
